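Compound exposure: 48 hours, 5 concentrations, 96-well plates. TGI is the concentration that stops growth completely.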
Assays:
Experiment in all cases: inhibition of tumour cell growth, NCI panel, 48 h
HCC-2998 colon = test system: HCC-2998 colon
COLO 205 colon = test system: COLO 205 colon
DU-145 prostate = test system: DU-145 prostate
786-0 renal = test system: 786-0 renal
TK-10 renal = test system: TK-10 renal
ACHN renal = test system: ACHN renal
SNB-75 CNS = test system: SNB-75 CNS
KM12 colon = test system: KM12 colon
CAKI-1 renal = test system: CAKI-1 renal
BT-549 breast = test system: BT-549 breast
RPMI-8226 leukemia = test system: RPMI-8226 leukemia
NCI-H460 lung = test system: NCI-H460 lung
NCI-H23 lung = test system: NCI-H23 lung
NCI-H226 lung = test system: NCI-H226 lung
M14 melanoma = test system: M14 melanoma
UACC-62 melanoma = test system: UACC-62 melanoma
SK-MEL-5 melanoma = test system: SK-MEL-5 melanoma
RXF 393 renal = test system: RXF 393 renal
EKVX NSCLC = test system: EKVX NSCLC
HL-60(TB) leukemia = test system: HL-60(TB) leukemia
HT29 colon = test system: HT29 colon
OVCAR-3 ovarian = test system: OVCAR-3 ovarian
MCF7 breast = test system: MCF7 breast
HS 578T breast = test system: HS 578T breast
NCI-H522 lung = test system: NCI-H522 lung
MALME-3M melanoma = test system: MALME-3M melanoma
SR leukemia = test system: SR leukemia
MOLT-4 leukemia = test system: MOLT-4 leukemia
SW-620 colon = test system: SW-620 colon
A549 NSCLC = test system: A549 NSCLC
K-562 leukemia = test system: K-562 leukemia
LOX IMVI melanoma = test system: LOX IMVI melanoma
T-47D breast = test system: T-47D breast
OVCAR-8 ovarian = test system: OVCAR-8 ovarian
HCT-15 colon = test system: HCT-15 colon
MDA-MB-435 = test system: MDA-MB-435
MDA-MB-231 breast = test system: MDA-MB-231 breast
NCI/ADR-RES ovarian = test system: NCI/ADR-RES ovarian
PC-3 prostate = test system: PC-3 prostate
SN12C renal = test system: SN12C renal
SF-539 CNS = test system: SF-539 CNS
UO-31 renal = test system: UO-31 renal
SF-268 CNS = test system: SF-268 CNS
HCT-116 colon = test system: HCT-116 colon
SNB-19 CNS = test system: SNB-19 CNS
OVCAR-4 ovarian = test system: OVCAR-4 ovarian
SK-OV-3 ovarian = test system: SK-OV-3 ovarian
IGROV1 ovarian = test system: IGROV1 ovarian
U251 CNS = test system: U251 CNS
SK-MEL-2 melanoma = test system: SK-MEL-2 melanoma
SF-295 CNS = test system: SF-295 CNS
OVCAR-5 ovarian = test system: OVCAR-5 ovarian
MDA-N = test system: MDA-N
SK-MEL-28 melanoma = test system: SK-MEL-28 melanoma
HOP-62 NSCLC = test system: HOP-62 NSCLC
CCRF-CEM leukemia = test system: CCRF-CEM leukemia
UACC-257 melanoma = test system: UACC-257 melanoma
A498 renal = test system: A498 renal
HOP-92 NSCLC = test system: HOP-92 NSCLC

Measured: TGI

CC(C)(C)OC(=O)NCCCCC(NC(=O)OCc1ccccc1)C(N)=O (centres undefined)
> 100 µM: HCC-2998 colon | COLO 205 colon | DU-145 prostate | 786-0 renal | TK-10 renal | ACHN renal | SNB-75 CNS | KM12 colon | CAKI-1 renal | BT-549 breast | RPMI-8226 leukemia | NCI-H460 lung | NCI-H23 lung | NCI-H226 lung | M14 melanoma | UACC-62 melanoma | SK-MEL-5 melanoma | RXF 393 renal | EKVX NSCLC | HL-60(TB) leukemia | HT29 colon | OVCAR-3 ovarian | MCF7 breast | HS 578T breast | NCI-H522 lung | MALME-3M melanoma | SR leukemia | MOLT-4 leukemia | SW-620 colon | A549 NSCLC | K-562 leukemia | LOX IMVI melanoma | T-47D breast | OVCAR-8 ovarian | HCT-15 colon | MDA-MB-435 | MDA-MB-231 breast | NCI/ADR-RES ovarian | PC-3 prostate | SN12C renal | SF-539 CNS | UO-31 renal | SF-268 CNS | HCT-116 colon | SNB-19 CNS | OVCAR-4 ovarian | SK-OV-3 ovarian | IGROV1 ovarian | U251 CNS | SK-MEL-2 melanoma | SF-295 CNS | OVCAR-5 ovarian | MDA-N | SK-MEL-28 melanoma | HOP-62 NSCLC | CCRF-CEM leukemia | UACC-257 melanoma

C[C@]12OC[C@H](c3ccccc3)N1C(=O)C1[C@H]2CC12SCCS2 (some centres undefined)
> 100 µM: HCC-2998 colon | COLO 205 colon | DU-145 prostate | 786-0 renal | TK-10 renal | ACHN renal | SNB-75 CNS | KM12 colon | CAKI-1 renal | BT-549 breast | RPMI-8226 leukemia | NCI-H460 lung | NCI-H23 lung | A498 renal | NCI-H226 lung | M14 melanoma | UACC-62 melanoma | SK-MEL-5 melanoma | RXF 393 renal | EKVX NSCLC | HT29 colon | OVCAR-3 ovarian | MCF7 breast | HS 578T breast | NCI-H522 lung | MALME-3M melanoma | SR leukemia | MOLT-4 leukemia | SW-620 colon | A549 NSCLC | K-562 leukemia | T-47D breast | OVCAR-8 ovarian | HCT-15 colon | MDA-MB-435 | MDA-MB-231 breast | NCI/ADR-RES ovarian | PC-3 prostate | SN12C renal | SF-539 CNS | UO-31 renal | SF-268 CNS | HCT-116 colon | HOP-92 NSCLC | SNB-19 CNS | OVCAR-4 ovarian | SK-OV-3 ovarian | IGROV1 ovarian | U251 CNS | SK-MEL-2 melanoma | SF-295 CNS | OVCAR-5 ovarian | MDA-N | SK-MEL-28 melanoma | HOP-62 NSCLC | CCRF-CEM leukemia | UACC-257 melanoma
